# Test results: the pKa sets of Baltruschat and Czodrowski (2020)
# Conditions: acidic group
row,SMILES,pKa
1,C[Si](C)(C)c1cccc(C(=O)O)c1,4.24
2,O=Cc1cc(Br)ccc1O,7.4
3,NC(=S)c1ccc([N+](=O)[O-])cc1,11.8
4,CC(=O)c1cc[nH]n1,11.8
5,O=P([O-])(O)C([NH2+]Cc1ccccn1)c1ccccc1O (centres undefined),5.15
6,c1c[nH]cn1,14.5
7,Cc1n[nH]c(O)c1-c1ccccc1,11.4
8,O=C(/C=N/O)CCl,7.9
9,O=[Se](O)c1cccc(-c2ccccc2)c1,4.87
10,O=C1C[C@H](C(=O)O)[C@@H](C(=O)[O-])O1,3.82
11,O=S(=O)(Nc1ccc(Cl)cc1)C(F)(F)F,3.9
12,CCN(CC)C(=S)NC(=O)c1cccc(C)c1,8.36
13,CC(C)[NH2+]CCc1ccc(O)cc1,9.59
14,Cc1c(O)n[nH]c1-c1ccccc1,7.6
15,O=c1ccc(O)ccc1[O-],10.1
16,Sc1[nH+]ccc2ccccc12,-1.9
17,O/C(=C/c1ccncc1)c1ccccc1,10.3
18,O=C1CN(C(=O)c2ccccc2)C(=S)N1,6.5
19,N#CC(C#N)=NNc1ccc(OC(F)(F)F)cc1,6
20,Cc1ccc(NC=S)cc1,11.6
21,CCCSC(C)C(=O)O (centres undefined),3.82
22,CC#CC#CCC(=O)O,3.23

row,SMILES,pKa
1,Cc1n[nH]c(C)c1[N+](=O)[O-],10.3
2,COc1cc(C[NH+](C)C)c(O)c(C[NH+](C)C)c1,6.33
3,COc1ccc(O)c(/N=N/c2nc(C)cs2)c1,7.98
4,COc1cc(CO)ccc1O,9.79
5,CC[C@H](C(=O)O)[C@@]1(O)C[C@H]2CC[C@@H]1C2,4.07
6,O=c1[nH]c2ccccc2[nH]c1=O,9.67
7,O=C1CCC(=O)N1O,6.04
8,O=C([O-])C[N+](=O)[O-],8.9
9,Nc1c([O-])cccc1O,11.6
10,CCCCc1c(-c2ccccc2)n[nH]c1O,8.2
11,CC/C(N=O)=N/O,5.8
12,Oc1ccc(/C=N/c2ncc3nc[nH]c3n2)cc1,8.62
13,Nc1ccc(S(=O)(=O)Nc2ccc(N)nc2)cc1,8.82
14,C[N+]1(CCC(=O)O)CCCCC1,3.43
15,O=c1c(O)c1-c1ccc(F)cc1,2.07
16,O=C1CCC(O)=C1O,4.8
17,O=C1NCc2[nH]cnc2N1,11.5
18,CCN(CC)C(=S)NC(=O)c1ccc(Cl)cc1,8
19,C[N+](C)(C)c1cccc(O)c1,8.07
20,O=c1ccn([C@@H]2C[C@@H](O)[C@H](CO)O2)c(=O)[nH]1,9.3
21,Nc1ccccc1O,9.71
22,S=C(Nc1ccccc1)c1cccc(Br)c1,10.5

row,SMILES,pKa
1,O=[PH](O)C([NH2+]Cc1ccc[nH+]c1)c1ccccc1O (centres undefined),2.35
2,CC(C)SC(C)C(=O)O (centres undefined),3.78
3,O=C(O)/C=C\c1ccc(O)cc1,4.08
4,NNC(=O)c1ccccc1N,12.8
5,CC(C)(/C=C/C(=O)[O-])c1cc(Br)ccc1O,10
6,O=C(O)c1nsc2ccccc12,2.76
7,COc1cc(C(=O)O)cc(OC)c1O,4.2
8,Nc1ncccc1O,9.5
9,Cc1cc(C(=O)O)cs1,4.24
10,[NH3+]CCC(=O)N[C@@H](Cc1c[nH+]c[nH]1)C(=O)O,2.63
11,C/C=C\C=C/C(=O)O,4.51
12,[S-]c1ncc2nc[nH]c2n1,10.4
13,NS(=O)(=O)c1ccccc1,9.7
14,N#CC(C#N)=NNc1cccc(O)c1,6.45
15,CC(=O)CC(=O)c1ccccc1,8.69
16,O=S(=O)([O-])c1cc(O)cc2cn[nH]c12,9.65
17,O=c1c2[nH]cnc2ncn1O,5.66
18,O=C(O)C(F)c1ccccc1 (centres undefined),2.45
19,CCc1ccc(O)c(C(C)C)c1,10.8
20,Cc1ccc(C(=O)C(=O)O)cc1,1.52
21,Nc1ccc(-c2ccc(/N=C/c3ccc(O)cc3)cc2)cc1,9.5

# Same assay, conditions: basic group
row,SMILES,pKa
1,c1ccc(-c2[nH]c3ccccc3[nH+]2)nc1,-1.59
2,CCCCCCCCCCCCCCCCCCN(CC(C)O)CC(C)O (centres undefined),9.4
3,Clc1cccnc1,2.77
4,C[C@H]1CCN2CCC[C@@H]12,11.4
5,CC1CCN(C)C(C)(C)C1 (centres undefined),10.2
6,Nc1cccc2ccc([N+](=O)[O-])cc12,2.83
7,O=P([O-])(O)C([NH2+]Cc1ccccn1)c1ccccc1O (centres undefined),3.12
8,CC(C)NNC1CCN(C)CC1,9.07
9,c1c[nH]cn1,7.07
10,[O-]c1cccc(Cl)n1,7.76
11,CCc1cc(Cl)n(C)c2nc3ccccc3c1-2,7.46
12,Cc1cnc2c(c1)cc(C)c1cc(C)cnc12,5.27
13,CCc1c(C)c[nH]c1C,3.19
14,O=C([O-])c1ccncc1,4.9
15,CCN(CC)CCNc1nc(N)nc(C)c1C,9.7
16,CN(C)CCN,9.53
17,CCOC(=O)c1cc(-c2ccccc2)nnc1NCCN1CCOCC1,6.67
18,CC[C@H](C(=O)[O-])[C@H](CO)Cc1cncn1C,7.47
19,CCCCCNc1ccccc1,5.2
20,Cc1cccnn1,3.46
21,COc1ccc(N)cc1CN,9.77
22,NC1=N[C@H]2C[C@@H](N1)N[C@@H]2C(=O)[O-],12.6
23,[S-]c1ccc2ccccc2n1,10.2
24,CC(N)(C(=O)[O-])c1ccccc1 (centres undefined),9

row,SMILES,pKa
1,Cc1cccc(Cl)c1/C(=N/CCC[NH+](C)C)c1ccccc1,3.26
2,CC1CCCNC1 (centres undefined),10.9
3,CCOc1cccc(/N=C/N(C)C)c1,8.87
4,NCCCCCCCCCCCCN,10.8
5,CCN1CC(O[Si](C)(C)C)C1,8.68
6,O=C([O-])c1cc(-c2ccccc2)nnc1NCC[NH+]1CCOCC1,3.33
7,NC(CCc1ccc([N+](=O)[O-])cc1)C(=O)[O-] (centres undefined),9.1
8,Cc1cc(Br)c(N)c(Br)c1,0.69
9,NNC(=O)CC([NH2+]CCO)C(=O)[O-] (centres undefined),2.13
10,N[C@H]1CCC[C@H]1C(=O)Oc1ccc([N+](=O)[O-])cc1,8.36
11,CC(=O)c1ccccc1,18.3
12,O/C(=C/c1ccncc1)c1ccccc1,6.21
13,CCN(CC)CCCCNc1cc[nH+]c2ccccc12,8.94
14,C[C@H](N)Cc1ccc(O)cc1,9.3
15,NCc1cc(Cl)ccc1[N+](=O)[O-],8.19
16,CNc1cnccc1N,9.14
17,Cc1cc(-n2nc(C)cc2C)[nH]n1,2.23
18,CN(C)c1cc[n+](C)c([O-])n1,4.2
19,O=C1CN(C(=O)c2ccccc2)C(=S)N1,-6.6
20,c1cncc(-c2[nH]c3ccccc3[nH+]2)c1,1.56
21,N#CC(C#N)=NNc1ccc(OC(F)(F)F)cc1,-0.78
22,CCCc1c(O)n[nH]c1C,2.8
23,CC(C=C(c1cccs1)c1cccs1)N1CCCCCCC1 (centres undefined),7.52
24,Cc1c2ccncc2cc2c1[nH]c1ccncc12,7.5

row,SMILES,pKa
1,O=C([O-])c1ccnc2ccccc12,4.76
2,Cc1n[nH]c(C)c1[N+](=O)[O-],-0.22
3,CCN(CC)Cc1c([O-])c(Cl)cc(Cl)c1Cl,11.8
4,C1CCN(CCC[NH+]2CCCCC2)CC1,7.97
5,CNc1ncnc2c1cnn2C,4.24
6,CN(C)c1cccc2cccc([NH+](C)C)c12,-9
7,COc1ccc(O)c(/N=N/c2nc(C)cs2)c1,0.77
8,Cc1cccc(C)c1NC(=O)CN(C)C,7.36
9,Nc1ccc2c(c1)Cc1c(O)cccc1-2,4.63
10,CCCCCCCCCCCCCCCN,10.6
11,Nc1nc(N)nc([O-])n1,9.4
12,CN(C)C,9.96
13,CSc1nccc2ccccc12,3.93
14,O=C([O-])C1CCCCN1 (centres undefined),10.6
15,COCc1cccc(COC)n1,3.43
16,CCN1CCCC=C1C,11.6
17,CCN(CC)CCN=C(c1ccccc1C)c1ccccc1C,8.8
18,COc1ccc(Cl)c2cccnc12,4.13
19,CN(C)/C=N/c1ccccc1,9
20,[O-]c1ncnc2cccnc12,8.95
21,O=S(=O)([O-])c1ccncc1,3.44
22,COc1ccc(-c2cn3ccsc3n2)c(OC)c1,4.67
23,Oc1ccc(/C=N/c2ncc3nc[nH]c3n2)cc1,3.27
24,Nc1ccc(S(=O)(=O)Nc2ccc(N)nc2)cc1,4.19

row,SMILES,pKa
1,CC/N=c1\sc(-c2ccccc2)nn1CC,6.7
2,Nc1ccc2nnccc2c1,5.04
3,Cc1cc(Br)cc(C)c1N(C)C,4.36
4,COCc1nc2c(n1C)C(=O)c1ncnc([O-])c1C2=O,6.17
5,Clc1cn[nH]c1,1.24
6,C[NH+](C)CCC/N=C(\c1ccccc1)c1ccccc1-c1ccccc1,4.43
7,COc1ccc2c(c1)NCC[NH2+]2,1.93
8,CCOCCNc1ccccc1,4.04
9,CN(C)c1ccc(C=O)cc1,1.6
10,Nc1cc([NH3+])ccc1O,3.05
11,Nc1ccccc1O,4.55
12,NNC(=O)c1ccccc1N,3.47
13,Oc1onc2c1CCNCC2,9.6
14,CCN(CC)NC,7.14
15,CC(C)C(C(C)C)N(C)C,10.1
16,Cc1ccc(N(C)CO)cc1,3.73
17,COc1ccc(N)cc1Br,4.09
18,Nc1cccc2c([N+](=O)[O-])cccc12,2.8
19,CCN1CCC[C@@H]1CNC(=O)c1c([O-])c(Cl)cc(Cl)c1OC,9.12
20,CN1CCCCCCN(C)CCCCCC1,9.24
21,[S-]c1ncc2nc[nH]c2n1,7.15
22,C/C(CCN(C)C)=N\[O-],11.2
23,CCCCN(C)C,10
24,Cc1nc[nH]c1C,8.19

row,SMILES,pKa
1,C[C@H](CCCNCc1ccccc1)[C@H]1CC[C@H]2[C@@H]3[C@H](O)C[C@@H]4C[C@H](O)CC[C@]4(C)[C@H]3CC[C@]12C,9.07
2,Cc1ccc(C)c(C(=N)c2ccccc2)c1,6.79
3,c1ccc(CN(Cc2ccccc2)Cc2ccccc2)cc1,7.44
4,c1ccc2c(c1)C1CCN2c2ccccc21,4.54
5,CSC(=N)N,9.83
6,CC(C)(C)c1ccccn1,5.72
7,S=C(/N=N/c1ccccc1)NNc1ccccc1,4.64
8,Clc1cc(-c2ccccc2)nnc1NCCN1CCOCC1,6.64
9,Cc1cc(N)nc2ccc3ccccc3c12,7.14
10,Cn1cc(Cl)cn1,0.16
11,CN1CCCCC1,10.1
12,COC(=O)c1ccncc1,3.38
13,CS(=O)C(C)(C)C (centres undefined),-1.71
14,Nc1nc(NCO)nc(NCO)n1,4.65
15,CNNC,5.2
16,[S-]c1ccccn1,9.89
17,CCNNC,7.5
18,NNC=O,2.81
19,CCN(CC)N(CC)CC,7.31
20,Nc1ccc(-c2ccc(/N=C/c3ccc(O)cc3)cc2)cc1,6.86
21,CCc1ccc(O)c(CN(C)C)c1,8.51
22,O=[N+]([O-])c1ccc2[nH]c(CCl)nc2c1,2.21
23,CN1CSC[C@H]1C(=O)[O-],6.6
